Laboratory results taken from PubChem BioAssay (NCI).
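Following 48 hours of exposure in 96-well plates, responses at five concentrations were used to interpolate endpoints linearly. At the TGI there is no net growth.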

Legend:
Test in all cases: DTP human tumour cell line panel, 48 h
[1] = tested on: COLO 205 colon
[2] = tested on: A549 NSCLC
[3] = tested on: HCT-15 colon
[4] = tested on: MDA-MB-231 breast
[5] = tested on: A498 renal
[6] = tested on: MOLT-4 leukemia
[7] = tested on: BT-549 breast
[8] = tested on: MCF7 breast
[9] = tested on: SW-620 colon
[10] = tested on: HOP-62 NSCLC
[11] = tested on: RPMI-8226 leukemia
[12] = tested on: SK-OV-3 ovarian
[13] = tested on: HS 578T breast
[14] = tested on: SNB-75 CNS
[15] = tested on: SK-MEL-28 melanoma
[16] = tested on: MDA-MB-435
[17] = tested on: U251 CNS
[18] = tested on: ACHN renal
[19] = tested on: SR leukemia
[20] = tested on: SK-MEL-2 melanoma
[21] = tested on: UACC-62 melanoma
[22] = tested on: SF-295 CNS
[23] = tested on: UACC-257 melanoma
[24] = tested on: K-562 leukemia
[25] = tested on: HOP-92 NSCLC
[26] = tested on: DU-145 prostate
[27] = tested on: OVCAR-5 ovarian
[28] = tested on: SNB-19 CNS
[29] = tested on: KM12 colon
[30] = tested on: 786-0 renal
[31] = tested on: SF-268 CNS
[32] = tested on: OVCAR-4 ovarian
[33] = tested on: OVCAR-8 ovarian
[34] = tested on: EKVX NSCLC
[35] = tested on: MDA-N
[36] = tested on: OVCAR-3 ovarian
[37] = tested on: HL-60(TB) leukemia
[38] = tested on: MALME-3M melanoma
[39] = tested on: SF-539 CNS
[40] = tested on: UO-31 renal
[41] = tested on: HCT-116 colon
[42] = tested on: SK-MEL-5 melanoma
[43] = tested on: NCI-H460 lung
[44] = tested on: T-47D breast
[45] = tested on: NCI-H226 lung
[46] = tested on: HCC-2998 colon
[47] = tested on: NCI/ADR-RES ovarian
[48] = tested on: CCRF-CEM leukemia
[49] = tested on: RXF 393 renal
[50] = tested on: TK-10 renal
[51] = tested on: PC-3 prostate
[52] = tested on: M14 melanoma
[53] = tested on: LOX IMVI melanoma
[54] = tested on: IGROV1 ovarian
[55] = tested on: NCI-H522 lung
[56] = tested on: SN12C renal
[57] = tested on: HT29 colon
[58] = tested on: CAKI-1 renal
[59] = tested on: NCI-H23 lung
[60] = tested on: DLD-1 colon
[61] = tested on: LXFL 529 NSCLC
[62] = tested on: HOP-18 NSCLC
[63] = tested on: M19-MEL melanoma
[64] = tested on: SNB-78 CNS
[65] = tested on: KM20L2 colon
[66] = tested on: DMS 114 small cell lung
[67] = tested on: DMS 273 small cell lung

CCOC(=O)c1sc2ncnc(N)c2c1C
TGI [1]: > 100 µM | TGI [2]: > 100 µM | TGI [3]: > 100 µM | TGI [4]: > 100 µM | TGI [5]: > 100 µM | TGI [6]: > 100 µM | TGI [7]: > 100 µM | TGI [8]: > 100 µM | TGI [9]: > 100 µM | TGI [10]: > 100 µM | TGI [11]: > 100 µM | TGI [12]: > 100 µM | TGI [13]: > 100 µM | TGI [14]: > 100 µM | TGI [15]: > 100 µM | TGI [16]: > 100 µM | TGI [17]: > 100 µM | TGI [18]: > 100 µM | TGI [19]: > 100 µM | TGI [20]: > 100 µM | TGI [21]: > 100 µM | TGI [22]: > 100 µM | TGI [23]: > 100 µM | TGI [24]: > 100 µM | TGI [25]: 92.2 µM | TGI [26]: > 100 µM | TGI [27]: > 100 µM | TGI [28]: > 100 µM | TGI [29]: > 100 µM | TGI [30]: > 100 µM | TGI [31]: > 100 µM | TGI [32]: > 100 µM | TGI [33]: > 100 µM | TGI [34]: > 100 µM | TGI [35]: > 100 µM | TGI [36]: > 100 µM | TGI [37]: > 100 µM | TGI [38]: > 100 µM | TGI [39]: > 100 µM | TGI [40]: > 100 µM | TGI [41]: > 100 µM | TGI [42]: > 100 µM | TGI [43]: > 100 µM | TGI [44]: > 100 µM | TGI [45]: > 100 µM | TGI [46]: > 100 µM | TGI [47]: > 100 µM | TGI [48]: > 100 µM | TGI [49]: 71.3 µM | TGI [50]: > 100 µM | TGI [51]: > 100 µM | TGI [52]: > 100 µM | TGI [53]: > 100 µM | TGI [54]: > 100 µM | TGI [55]: > 100 µM | TGI [56]: > 100 µM | TGI [57]: > 100 µM | TGI [58]: > 100 µM | TGI [59]: > 100 µM

COc1ccc(/C=N/n2c(C)nc3c(sc(=S)n3-c3ccccc3)c2=O)cc1
TGI [1]: > 100 µM | TGI [60]: > 100 µM | TGI [2]: > 100 µM | TGI [5]: > 100 µM | TGI [6]: > 100 µM | TGI [9]: > 100 µM | TGI [10]: > 100 µM | TGI [11]: > 100 µM | TGI [12]: > 100 µM | TGI [14]: 41.4 µM | TGI [15]: > 100 µM | TGI [17]: > 100 µM | TGI [61]: > 100 µM | TGI [18]: > 100 µM | TGI [19]: > 100 µM | TGI [21]: > 100 µM | TGI [22]: > 100 µM | TGI [23]: > 100 µM | TGI [24]: 81.2 µM | TGI [25]: > 100 µM | TGI [27]: > 100 µM | TGI [62]: > 100 µM | TGI [28]: > 100 µM | TGI [29]: > 100 µM | TGI [31]: > 100 µM | TGI [33]: > 100 µM | TGI [36]: > 100 µM | TGI [37]: 61.2 µM | TGI [39]: > 100 µM | TGI [40]: > 100 µM | TGI [41]: > 100 µM | TGI [42]: > 100 µM | TGI [43]: > 100 µM | TGI [45]: > 100 µM | TGI [46]: > 100 µM | TGI [63]: > 100 µM | TGI [48]: 54.2 µM | TGI [50]: > 100 µM | TGI [54]: > 100 µM | TGI [55]: 46.4 µM | TGI [57]: > 100 µM | TGI [59]: > 100 µM

Clc1nncc2sc(-c3ccccc3)nc12
TGI [1]: > 86.5 µM | TGI [2]: > 100 µM | TGI [3]: 36.4 µM | TGI [4]: 56.1 µM | TGI [5]: > 100 µM | TGI [6]: > 97.2 µM | TGI [7]: > 53.2 µM | TGI [8]: > 92.6 µM | TGI [9]: 61.3 µM | TGI [10]: 53.6 µM | TGI [11]: > 100 µM | TGI [12]: 80.6 µM | TGI [13]: 64.7 µM | TGI [14]: > 64.1 µM | TGI [15]: > 50.8 µM | TGI [16]: 49.6 µM | TGI [17]: > 53.2 µM | TGI [18]: > 84.9 µM | TGI [19]: > 100 µM | TGI [20]: 47.4 µM | TGI [21]: 46.4 µM | TGI [22]: > 77.4 µM | TGI [23]: 56.7 µM | TGI [24]: > 100 µM | TGI [25]: 24 µM | TGI [26]: 31.8 µM | TGI [27]: > 100 µM | TGI [28]: 51.4 µM | TGI [29]: > 72.8 µM | TGI [30]: > 100 µM | TGI [31]: 49 µM | TGI [32]: 53.5 µM | TGI [33]: 59.3 µM | TGI [34]: 12.5 µM | TGI [35]: 51.4 µM | TGI [36]: 33.8 µM | TGI [37]: 51.2 µM | TGI [38]: 70.6 µM | TGI [39]: 74.6 µM | TGI [40]: 55 µM | TGI [41]: 48.9 µM | TGI [42]: 46.3 µM | TGI [43]: > 57.7 µM | TGI [44]: > 100 µM | TGI [45]: > 82.4 µM | TGI [46]: > 45.7 µM | TGI [47]: 69.1 µM | TGI [48]: > 94.4 µM | TGI [49]: 50.7 µM | TGI [50]: > 100 µM | TGI [51]: > 58.2 µM | TGI [52]: 52.3 µM | TGI [53]: 50.2 µM | TGI [54]: 40.3 µM | TGI [55]: 44.8 µM | TGI [56]: 57.7 µM | TGI [57]: 68.5 µM | TGI [58]: 2.91 µM | TGI [59]: 52.9 µM

N#CC(C#N)=c1c2nsnc2c(=C(C#N)C#N)c2nsnc12
TGI [1]: 4.83 µM | TGI [60]: 4.39 µM | TGI [2]: 10.3 µM | TGI [64]: 3.28 µM | TGI [9]: 3.05 µM | TGI [10]: 3.59 µM | TGI [14]: 3.01 µM | TGI [15]: 3.3 µM | TGI [17]: 3.19 µM | TGI [61]: 2.99 µM | TGI [18]: 3.23 µM | TGI [65]: 3.26 µM | TGI [20]: 3.53 µM | TGI [22]: 3.33 µM | TGI [23]: 3.53 µM | TGI [25]: 3.35 µM | TGI [66]: 3.93 µM | TGI [27]: 3.3 µM | TGI [62]: 5.09 µM | TGI [28]: 4.33 µM | TGI [29]: 3.85 µM | TGI [30]: 17.9 µM | TGI [31]: 4.26 µM | TGI [32]: 3.83 µM | TGI [33]: 3.12 µM | TGI [34]: 14.9 µM | TGI [36]: 8.34 µM | TGI [67]: 3.24 µM | TGI [37]: 4.64 µM | TGI [38]: 3.11 µM | TGI [39]: 3.46 µM | TGI [40]: 3.87 µM | TGI [41]: 3.71 µM | TGI [43]: 3.86 µM | TGI [45]: 31.9 µM | TGI [46]: 3.25 µM | TGI [49]: 2.61 µM | TGI [50]: 31.3 µM | TGI [52]: 3.54 µM | TGI [53]: 3 µM | TGI [55]: 3.51 µM | TGI [57]: 3.2 µM | TGI [58]: 3.53 µM | TGI [59]: 3.91 µM
